Source: PMC10885153, “Membrane Permeability in a Large Macrocyclic Peptide Driven by a Saddle-Shaped Conformation” (Journal of the American Chemical Society, 2024)
Values after ≈ are worked out from the molar mass of the structure shown. Positions of bridges follow the written chain, without caps; N, C: chain ends. Non-standard residues stand in square brackets, D forms with d. Residues, ends and D or L forms follow the SMILES beside them. Cha = N[C@@H](CC1CCCCC1)C(=O)O; NMeAbu = CC[C@H](NC)C(=O)O; NMeC = CN[C@@H](CS)C(=O)O; NMeA = CN[C@@H](C)C(=O)O; dAbu = CC[C@@H](N)C(=O)O; dNMeA = CN[C@H](C)C(=O)O; Nva = CCC[C@H](N)C(=O)O; Abu = CC[C@H](N)C(=O)O; Nleu = CC(C)CNCC(=O)O; NPrGly = CCCNCC(=O)O; NEtG = CCNCC(=O)O

Legend:
in vitro [1] = settings: PAMPA
Description: (§1) assay was carried out with a 96-well donor plate with 0.45 μ hydrophobic Immobilon-P membrane supports
(Millipore MAIPNTR10) and a 96-well Teflon acceptor plate (Millipore MSSACCEPTOR). The PAMPA
protocol then proceeded as follows:
(§2) Donor well solutions were prepared to a volume of 1 000 µL with the analytes as a solution in 1X
(§3) PBS pH 7.4 and 5% DMSO. To a 3 mL Eppendorf tube was added 950 µL of 1X PBS pH 7.4, 40
Analyte – 10 µM per compound
(§4) sonicated (5 min) to ensure full dissolution of the lecithin. The donor membrane plate was turned
(§5) upside down and bottom of the membranes exposed. 5 µL of the 1% soy lecithin solution in
(§6) dodecane was then placed on the bottom of the membrane, allowing the drop to spread across the
full area of the membrane. Any membranes with visible damage were not used in the assay. The
(§7) membranes were allowed to equilibrate for 5 min before loading.
3. Each well within the Teflon block acceptor plate that was to be used in the assay was then loaded
(§8) with 300 µL of 1X PBS pH 7.4 and 5% DMSO.
(§9) Working without break, 150 µL of each donor well solution was transferred from the to the 96-well
(§10) donor plate. Each mixture of interest was r un in quadruplicate, using a new well for each replicate.
(§11) As soon as the 96-well donor plate was finished being loaded, it was gently placed into the 96-well
(§12) Teflon acceptor plate, taking care not to trap any air bubbles beneath the membrane.
(§13) The donor/acceptor plates were covered gently with the lid to minimize evaporation and transferred
(§14) gently as a system to a sealed chamber and left to sit overnight at room temperature. The chamber
(§15) was kept from drying by placing a wet paper towel within to prevent evaporation.
(§16) After ~19-20 hours the donor plate was removed from the acceptor plate.
(§17) 50 µL of each well (donor and acceptor) were transferred to a 96 -well plate and diluted with 50 µL
(§18) of methanol prior to heat sealing and quantification by UPLC -MS.

in vitro [2] = settings: dog, pH 7.4
Description: We also tested the permeabilities of the pure compounds in a cell-based trans-well permeability assay using Mdr1 knockout Madin–Darby canine kidney (MDCK) cells which minimize the endogenous efflux activity of traditional MDCK cells.[54]
The gMDCKI cell line (overexpressed cell line of Madin -Darby Canine Kidney which acquired from the NIH)
maintained in DMEM medium supplemented with 1% pen -strep, 5 µg/mL Plasmocin, and 10% FBS under
standard culture conditions (37 °C, 95% humidity, and 5% CO2), were seeded (0.75 x 10^5 cells) on the HTS
Transwell-96 permeable support (Corning) to form a confluent monolayer for two days.
All experimental steps were fully automated on Hamilton Vantage. Compound stock solution (1 mM in
DMSO) was diluted (10 μM final in HBSS, pH 7.4) with Lucifer Yellow as leakage indicator (20 μM). After
washing with HBSS buffer, the solution of test compounds was added to the apical side of the monolayers.
The plate was incubated for 3 h at 37 °C. T0 samples (10 µL of the 10 µM compounds diluted solution with
LY) were transferred to a 96-well plate, and then 40 µL of HBSS was added. After 3 hours, 50 μL basolateral
samples in the receiving plate were transferred to a fresh 96-well plate and added 100 μL of IS solution
(Propranolol). LY were read by plate reader and the samples were analyzed by LC/MS/MS.
The apparent permeability coefficient (Papp) is calculated from the permeation rate and compound
concentration at t=0h and t=3h. Where:
dQ/dt: amount of product present in the basal (A-B) or apical (B-A) compartment as a function of time
A: area of transwell (cm2).
C0: initial concentration of product applied in the apical (A -B) or basal (B-A) compartment (nmol/ml).

[3] = PAMPA, compounds measured in multiplex as mixtures (primary protocol); settings: for Papp at 10 µM: PAMPA, pH 7.4, PAMPA Papp; for Papp at 10 µM / PAMPA Papp: internal standard, 10 µM; for PAMPA Pe_avg: Stereoscan Library A (Scaffold A), average
Description: (§19) Passive permeabilities of the 36 compounds were measured in multiplex as mixtures of six compounds each using the parallel artificial membrane permeability assay (PAMPA).[44]−[46]
(§20) Protocol is identical for both mixture and pure compound analysis.
(§21) Two of the following: Carbamazepine (CBZ), propranolol (Prop), and 1NMe35 were
(§22) included as internal standards and prepared as DMSO stocks at a concentration of 2 000 µM.
as §1
(§23) (Millipore MAIPNTR10) and a 96-well Teflon acceptor plate (Millipore MSSACCEPTOR).
protocol then proceeded as follows:
as §2, §3
(§24) The solutions were vortexed and set aside.
Analyte – 10 µM per compound
(§25) A 1% solution of soy lecithin in dodecane was freshly prepared in a 3 mL Eppendorf tube and
as §4, §5, §6
(§26) full area of the membrane. Any membranes with visible damage were not used in the assay.
as §7
(§27) Each well within the Teflon block acceptor plate that was to be used in the assay was then loaded
as §8, §9, §10, §11, §12, §13, §14, §15, §16, §17, §18

physchem = settings: pH 7.4, aqueous with cosolvent or surfactant or cyclodextrin, kinetic from dmso stock
Description: Kinetic Solubility PBS Protocol
4 µL of 10 mM compound in DMSO stock was added to 196 µL 1 X PBS pH 7.4 in a 96 -well microplate to
get a final concentration of 200 µM to shake for 24 hours at 1000 rpm. The sample was filtered sample
using a 96-Multiscreen HTS filter plate (Millipore MSSL BPC50) and a positive pressure manifold.

in vitro [4] = settings: PAMPA; remark: listed apart in the source
Description: as §19, §20, §21, §22, §1, §23
protocol then proceeded as follows:
as §2, §3, §24
Analyte – 10 µM per compound
as §25, §4, §5, §6, §26, §7, §27, §8, §9, §10, §11, §12, §13, §14, §15, §16, §17, §18

[5] = PAMPA, 10 µM, pH 7.4
Description: as §19, §20, §21, §22, §1, §23
protocol then proceeded as follows:
as §2, §3, §24
Analyte – 10 µM per compound
as §25, §4, §5, §6, §26, §7, §27, §8, §9, §10, §11, §12, §13, §14, §15, §16, §17, §18

SMILES: CCOC(=O)[C@@H]1CSCC(=O)N[C@H](CC)C(=O)N(CC(C)C)CC(=O)N[C@@H](CC(C)C)C(=O)N(C)[C@H](C)C(=O)N(C)[C@@H](C)C(=O)N[C@H](CC(C)C)C(=O)N(C)[C@H](C)C(=O)N[C@@H](CC(C)C)C(=O)N1C [B1, O=C([C@@H](NC([C@H](N(C([C@H](NC([C@@H](N(C([C@H](N(C)C([C@@H](NC(CN1CC(C)C)=O)CC(C)C)=O)C)=O)C)C)=O)CC(C)C)=O)C)C)=O)CC(C)C)N([C@@H](CSCC(N[C@H](CC)C1=O)=O)C(OCC)=O)C] ({CH2CO}-[dAbu][Nleu]L[dNMeA][NMeA][dL][dNMeA]L[NMeC]-OEt; thioether N-9)
- Papp at 10 µM (in vitro [1]; pH 7.4, PAMPA Papp): 10.1 ×10⁻⁶ cm/s
- Papp at 10 µM (in vitro [1]; pH 7.4, Papp): ~10 ×10⁻⁶ cm/s
- Papp at 3 h, 10 µM (in vitro [2]; MDCK): 1.3 ×10⁻⁶ cm/s
- Papp A→B at 3 h, 10 µM (in vitro [2]): 1.27 ×10⁻⁶ cm/s

SMILES: CCOC(=O)[C@@H]1CSCC(=O)N[C@@H](CC)C(=O)N(CC(C)C)CC(=O)N[C@@H](CC(C)C)C(=O)N(C)[C@H](C)C(=O)N(C)[C@@H](C)C(=O)N[C@H](CC(C)C)C(=O)N(C)[C@H](C)C(=O)N[C@@H](CC(C)C)C(=O)N1C [B1-1L, O=C([C@@H](NC([C@H](N(C([C@H](NC([C@@H](N(C([C@H](N(C)C([C@@H](NC(CN1CC(C)C)=O)CC(C)C)=O)C)=O)C)C)=O)CC(C)C)=O)C)C)=O)CC(C)C)N([C@@H](CSCC(N[C@@H](CC)C1=O)=O)C(OCC)=O)C] ({CH2CO}-[Abu][Nleu]L[dNMeA][NMeA][dL][dNMeA]L[NMeC]-OEt; thioether N-9)
- Papp at 10 µM (in vitro [1]; pH 7.4, PAMPA Papp): 0.5 ×10⁻⁶ cm/s
- Papp at 10 µM (in vitro [1]; pH 7.4, PAMPA Pe_avg): 0.455 ×10⁻⁶ cm/s
- Papp A→B at 3 h, 10 µM (in vitro [2]): 0.03 ×10⁻⁶ cm/s

SMILES: CCOC(=O)[C@@H]1CSCC(=O)N[C@H](CC)C(=O)N(CC(C)C)CC(=O)N[C@H](CC(C)C)C(=O)N(C)[C@H](C)C(=O)N(C)[C@@H](C)C(=O)N[C@H](CC(C)C)C(=O)N(C)[C@H](C)C(=O)N[C@@H](CC(C)C)C(=O)N1C [B1-3D, O=C([C@@H](NC([C@H](N(C([C@H](NC([C@@H](N(C([C@H](N(C)C([C@H](NC(CN1CC(C)C)=O)CC(C)C)=O)C)=O)C)C)=O)CC(C)C)=O)C)C)=O)CC(C)C)N([C@@H](CSCC(N[C@H](CC)C1=O)=O)C(OCC)=O)C] ({CH2CO}-[dAbu][Nleu][dL][dNMeA][NMeA][dL][dNMeA]L[NMeC]-OEt; thioether N-9)
- Papp at 10 µM (in vitro [1]; pH 7.4, PAMPA Papp): 1.5 ×10⁻⁶ cm/s
- Papp at 3 h, 10 µM (in vitro [2]; MDCK): 0.5 ×10⁻⁶ cm/s
- Papp A→B at 3 h, 10 µM (in vitro [2]): 0.48 ×10⁻⁶ cm/s

SMILES: CCOC(=O)[C@@H]1CSCC(=O)N[C@H](CC)C(=O)N(CC(C)C)CC(=O)N[C@@H](CC(C)C)C(=O)N2CCC[C@@H]2C(=O)N(C)[C@@H](C)C(=O)N[C@H](CC(C)C)C(=O)N(C)[C@H](C)C(=O)N[C@@H](CC(C)C)C(=O)N1C [B1-4dP, O=C([C@@H](NC([C@H](N(C([C@H](NC([C@@H](N(C([C@@H]1N(CCC1)C([C@@H](NC(CN2CC(C)C)=O)CC(C)C)=O)=O)C)C)=O)CC(C)C)=O)C)C)=O)CC(C)C)N([C@@H](CSCC(N[C@H](CC)C2=O)=O)C(OCC)=O)C] ({CH2CO}-[dAbu][Nleu]L[dP][NMeA][dL][dNMeA]L[NMeC]-OEt; thioether N-9)
- Papp at 10 µM (in vitro [1]; pH 7.4, PAMPA Papp): 0.1 ×10⁻⁶ cm/s
- Papp at 10 µM (in vitro [1]; pH 7.4, PAMPA Pe_avg): 0.213 ×10⁻⁶ cm/s
- Papp A→B at 3 h, 10 µM (in vitro [2]): 0.0274 ×10⁻⁶ cm/s

SMILES: CCOC(=O)[C@@H]1CSCC(=O)N[C@H](CC)C(=O)N(CC(C)C)CC(=O)N[C@@H](CC(C)C)C(=O)N(C)[C@H](C)C(=O)N(C)[C@@H](C)C(=O)N[C@@H](CC(C)C)C(=O)N(C)[C@H](C)C(=O)N[C@@H](CC(C)C)C(=O)N1C [B1-6L, O=C([C@@H](NC([C@H](N(C([C@@H](NC([C@@H](N(C([C@H](N(C)C([C@@H](NC(CN1CC(C)C)=O)CC(C)C)=O)C)=O)C)C)=O)CC(C)C)=O)C)C)=O)CC(C)C)N([C@@H](CSCC(N[C@H](CC)C1=O)=O)C(OCC)=O)C] ({CH2CO}-[dAbu][Nleu]L[dNMeA][NMeA]L[dNMeA]L[NMeC]-OEt; thioether N-9)
- Papp at 10 µM (in vitro [1]; pH 7.4, PAMPA Papp): 0.7 ×10⁻⁶ cm/s
- Papp at 10 µM (in vitro [1]; pH 7.4, PAMPA Pe_avg): 0.738 ×10⁻⁶ cm/s
- Papp at 3 h, 10 µM (in vitro [2]; MDCK): 0.4 ×10⁻⁶ cm/s
- Papp A→B at 3 h, 10 µM (in vitro [2]): 0.39 ×10⁻⁶ cm/s

SMILES: NC(=O)N1c2ccccc2C=Cc2ccccc21 [Carbamazepine]
- Papp at 10 µM ([3]; Lipo expt. group A1): 5.9 ± 0.3 ×10⁻⁶ cm/s
- Papp at 10 µM ([3]; Lipo expt. group A2): 6 ± 0.4 ×10⁻⁶ cm/s
- Papp at 10 µM ([3]; Lipo expt. group B1): 5.8 ± 0.4 ×10⁻⁶ cm/s
- Papp at 10 µM ([3]; Lipo expt. group B2): 6.3 ± 0.2 ×10⁻⁶ cm/s
- Papp at 10 µM ([3]; Lipo expt. group C1): 6.8 ± 0.1 ×10⁻⁶ cm/s
- Papp at 10 µM ([3]; Lipo expt. group C2): 6 ± 0.1 ×10⁻⁶ cm/s
- Papp at 10 µM ([3]; StereoA expt. group A2D): 4.4 ± 0.1 ×10⁻⁶ cm/s
- Papp at 10 µM ([3]; StereoA expt. group A2L): 4.4 ± 0.1 ×10⁻⁶ cm/s
- Papp at 10 µM ([3]; StereoA expt. group ADD): 4.2 ± 0.1 ×10⁻⁶ cm/s
- Papp at 10 µM ([3]; StereoA expt. group ADL): 4.3 ± 0.2 ×10⁻⁶ cm/s
- Papp at 10 µM ([3]; StereoA expt. group ALD): 4.3 ± 0.1 ×10⁻⁶ cm/s
- Papp at 10 µM ([3]; StereoA expt. group ALL): 5.1 ± 0.3 ×10⁻⁶ cm/s
- Papp at 10 µM ([3]; StereoB expt. group B2D): 6.3 ± 1.7 ×10⁻⁶ cm/s
- Papp at 10 µM ([3]; StereoB expt. group B2L): 5.6 ± 0.2 ×10⁻⁶ cm/s
- Papp at 10 µM ([3]; StereoB expt. group BDD): 5.5 ± 0.1 ×10⁻⁶ cm/s
- Papp at 10 µM ([3]; StereoB expt. group BDL): 5.8 ± 0.1 ×10⁻⁶ cm/s
- Papp at 10 µM ([3]; StereoB expt. group BLD): 5.5 ± 0.1 ×10⁻⁶ cm/s
- Papp at 10 µM ([3]; StereoB expt. group BLL): 5.8 ± 0.2 ×10⁻⁶ cm/s

SMILES: CCOC(=O)[C@@H]1CSCC(=O)N[C@H](CC)C(=O)N(C)[C@@H](C)C(=O)N[C@H](CC(C)C)C(=O)N(C)[C@H](C)C(=O)N(CC)CC(=O)N[C@@H](CC(C)C)C(=O)N(C)[C@@H](C)C(=O)N[C@@H](CC(C)C)C(=O)N1C [JF206_A2D_DDLL_Ethyl] ({CH2CO}-[dAbu][NMeA][dL][dNMeA][NEtG]L[NMeA]L[NMeC]-OEt; thioether N-9)
- PAMPA Pe_avg [3]: 0 cm/s

SMILES: CCOC(=O)[C@@H]1CSCC(=O)N[C@H](CC)C(=O)N(C)[C@@H](C)C(=O)N[C@H](CC(C)C)C(=O)N(C)[C@H](C)C(=O)N(CC(C)C)CC(=O)N[C@@H](CC(C)C)C(=O)N(C)[C@@H](C)C(=O)N[C@@H](CC(C)C)C(=O)N1C [JF206_A2D_DDLL_Isobutyl] ({CH2CO}-[dAbu][NMeA][dL][dNMeA][Nleu]L[NMeA]L[NMeC]-OEt; thioether N-9)
- PAMPA Pe_avg [3]: 0 cm/s

SMILES: CCC[C@@H]1NC(=O)CN(CCC)C(=O)[C@H](CC(C)C)NC(=O)CSC[C@@H](C(=O)OCC)N(C)C(=O)[C@H](CC(C)C)NC(=O)[C@H](C)N(C)C(=O)[C@H](CC(C)C)NC(=O)[C@H](C)N(C)C(=O)[C@H]2CCCN2C1=O [LB07, O=C(N(C)[C@H](C(OCC)=O)CSCC(N[C@H](C1=O)CC(C)C)=O)[C@H](CC(C)C)NC([C@H](C)N(C)C([C@H](CC(C)C)NC([C@H](C)N(C)C([C@@H]2N(C([C@H](CCC)NC(CN1CCC)=O)=O)CCC2)=O)=O)=O)=O] ({CH2CO}-L[NPrGly][Nva][dP][NMeA]L[NMeA]L[NMeC]-OEt; thioether N-9)
- solubility kinetic at 24 h (physchem): 132 µM (≈ 133 µg/mL)
- Papp at 10 µM (in vitro [1]; pH 7.4, PAMPA Papp): 3.1 ×10⁻⁶ cm/s
- Papp at 10 µM (in vitro [1]; pH 7.4, Permeability (Papp) PAMPA (indiv.)): 2.2 ×10⁻⁶ cm/s
- Papp A→B at 3 h, 10 µM (in vitro [2]; MDCK): 3.2 ×10⁻⁶ cm/s
- Papp at 3 h, 10 µM (in vitro [2]; MDCK): 3.2 ×10⁻⁶ cm/s
- Papp A→B at 3 h, 10 µM (in vitro [2]): 3.15 ×10⁻⁶ cm/s

SMILES: CCCN1CC(=O)N[C@@H](CC(C)C)C(=O)N2CCC[C@@H]2C(=O)N(C)[C@@H](C)C(=O)N[C@@H](CC2CCCCC2)C(=O)N(C)[C@@H](C)C(=O)N[C@@H](CC(C)C)C(=O)N(C)[C@H](C(=O)OCC)CSCC(=O)N[C@@H](CC(C)C)C1=O [LB12, O=C(N(C)[C@H](C(OCC)=O)CSCC(N[C@H](C1=O)CC(C)C)=O)[C@H](CC(C)C)NC([C@H](C)N(C)C([C@H](CC2CCCCC2)NC([C@H](C)N(C)C([C@@H]3N(C([C@H](CC(C)C)NC(CN1CCC)=O)=O)CCC3)=O)=O)=O)=O] ({CH2CO}-L[NPrGly]L[dP][NMeA][Cha][NMeA]L[NMeC]-OEt; thioether N-9)
- Papp at 10 µM (in vitro [4]; pH 7.4, Pe_avg): 0.072 ×10⁻⁶ cm/s
- Papp at 10 µM (in vitro [4]; pH 7.4, log(Pe)_avg): 0.0593 ×10⁻⁶ cm/s
- %R_avg [5]: 6.0%

SMILES: CCOC(=O)[C@@H]1CSCC(=O)N[C@@H](CC(C)C)C(=O)N(C)[C@@H](C)C(=O)N[C@@H](CC(C)C)C(=O)N2CCC[C@@H]2C(=O)N(C)[C@@H](CC)C(=O)N[C@@H](CC)C(=O)N(C)[C@@H](C)C(=O)N[C@@H](CC(C)C)C(=O)N1C [LC02, O=C(N(C)[C@H](C(OCC)=O)CSCC(N[C@H](C(N(C)[C@@H](C)C(N[C@@H](CC(C)C)C(N1[C@H](CCC1)C(N(C)[C@@H](CC)C(N[C@H]2CC)=O)=O)=O)=O)=O)CC(C)C)=O)[C@H](CC(C)C)NC([C@H](C)N(C)C2=O)=O] ({CH2CO}-L[NMeA]L[dP][NMeAbu][Abu][NMeA]L[NMeC]-OEt; thioether N-9)
- Papp at 10 µM (in vitro [4]; pH 7.4, Permeability (Papp) PAMPA (mixture)): 5 ×10⁻⁶ cm/s
- %R_avg [5]: 19.3%
- Papp A→B at 3 h, 10 µM (in vitro [2]; MDCK): 7.4 ×10⁻⁶ cm/s
- Papp at 3 h, 10 µM (in vitro [2]; MDCK): 7.4 ×10⁻⁶ cm/s

SMILES: CC(C)NCC(O)COc1cccc2ccccc12 (centres unmarked) [Propranolol]
- Papp at 10 µM ([3]; Lipo expt. group A1): 9.1 ± 0.4 ×10⁻⁶ cm/s
- Papp at 10 µM ([3]; Lipo expt. group A2): 9.2 ± 0.9 ×10⁻⁶ cm/s
- Papp at 10 µM ([3]; Lipo expt. group B2): 8.8 ± 0.2 ×10⁻⁶ cm/s
- Papp at 10 µM ([3]; Lipo expt. group C1): 9.8 ± 0.2 ×10⁻⁶ cm/s
- PAMPA Papp ([3]; Lipo expt. group B1): 7.7 ± 0.8 x10-6 cm/s
- PAMPA Papp ([3]; Lipo expt. group C2): 9.4 ± 0.4 x10-6 cm/s
